Reference: paper PMC7561186, “Rational design of balanced dual-targeting antibiotics with limited resistance” (PLoS Biology, 2020)
Read-outs that look alike come from different tables or passages of the source.

Experiments:
[1] = test system: novobiocin-resistant S. aureus VISA ATCC 700699 mutants; assay: MIC against novobiocin-resistant (novobiocin-adapted) strains; assay type: cell-based; settings: for MIC: Staphylococcus aureus
Experimental: (§1) MICs were determined using a standard serial broth microdilution technique according to the CLSI guidelines. Briefly, bacterial strains were inoculated onto MHBII agar plates and were grown overnight at 37 °C. Next, 3 individual colonies from each strain were inoculated into 1 mL MHBII medium and propagated at 37 °C, 250 rpm overnight. In the cases of Enterococcus and Streptococcus sp., cells were plated to BHI agar plates, and BHI broth was used to determine MICs. […] Following dilutions, each well was seeded with 5×10^4 bacterial cells. All measurements were performed in 3 parallel replicates and to avoid possible edge effects in microwell plates, side rows (A and H) were filled with sterile medium. Following inoculations, plates were covered with lids and wrapped in polyethylene plastic bags to minimize evaporation but allow for O2 transfer. Plates were incubated at 37 °C under continuous shaking at 150 rpm for 18 hours. After incubation, OD600 of each well was measured using a BioTek Synergy 2 microplate reader.

[2] = test system: multidrug-resistant Staphylococcus, Enterococcus, and Streptococcus isolates; assay: MIC against multidrug-resistant gram-positive isolates (summary); assay type: cell-based; settings: read-out: MIC values against all studied multidrug-resistant Staphylococcus, Enterococcus, and Streptococcus isolates
Experimental: as §1

Klebsiella pneumoniae = assay: MIC, broth microdilution (CLSI); assay type: cell-based; settings: Klebsiella pneumoniae ATCC 10031
Experimental: as §1

human red blood cells = assay: Haemolysis analysis; settings: for LDH activity: human red blood cells, 100 µg/mL; for hemolytic activity on human red blood cells: in words
Experimental: Next, 600 μl of this EDTA-treated blood was washed in TBS buffer (10 mM TRIS, 150 mM NaCl [pH 7.2]) and centrifuged at 1,500 g for 1 minute until the supernatant became colorless. The aliquot of the final pellet (200 μL) was diluted to 5 mL with TBS buffer. […] Next, 100 μL of red blood cell suspension was pipetted into sterile Eppendorf tubes together with 100 μL of 2-fold serial dilution of the compounds (final concentration ranged between 100 μg/mL–0.1 μg/mL in a final volume of 200 μL). The plate was incubated for one hour at 37 °C followed by centrifugation at 1,500 g for 1 minute to sediment all red blood cells. Next, all supernatants were subjected to LDH and Haemolysis-Icterus-Lipaemia (HIL) index determination on a Roche Modular P800 analyzer according to the manufacturer’s instructions. After completion of this step the rest of the supernatants were transferred to sterile 96-well plates for the measurement of their optical density at 560-nm wavelength (in a Multiskan FC microplate reader, Thermo Scientific). Melittin (Bachem) at a concentration of 50 μg/mL, and TBS and 10% DMSO/TBS were served as positive (100% hemolysis) and negative (no hemolysis) controls, respectively.

[3] = test system: S. aureus ATCC 700699 (VISA); assay: microbe, parasite or virus in culture; assay type: cell-based; settings: for MIC: Staphylococcus aureus, read-out: MIC in adapted strains; for increase in MIC in adapted strains compared with the wild-type strain: lineages adapted to the same compound, S. aureus VISA
Experimental: Adaptive laboratory evolution experiments followed an established protocol for automated laboratory evolution and aimed to maximize the drug-resistance increment during a fixed time period. […] Experiments were conducted in 96-well plates, in MHBII medium, by utilizing a checkerboard layout to minimize and monitor cross-contamination. These 96-well deep-well plates (0.5 mL, polypropylene, V-bottom) were covered with sandwich covers (Enzyscreen BV) to ensure an optimal oxygen exchange rate and limit evaporation and were shaken at 150 rpm, 37 °C. […] Following cell transfer, each culture was allowed to grow for 48 hours. At each transfer, cell growth was monitored by measuring the OD600 in a BioTek Synergy 2 plate reader. […] Accordingly, only 1 of the 4 populations was retained for each independently evolving strain. This protocol was designed to avoid population extinction and to ensure that populations with the highest level of resistance are propagated further during adaptive evolution. […] Adaptation of populations was terminated after 20 transfers, i.e., 40 days. Following adaptation, cells from each final population were spread onto MHBII agar plates, and individual colonies were isolated. Next, one colony from each adapted line were subjected to capillary sequencing of gyrB and parE to assess their genotype.

CHO-K1 cells = assay type: cell-based, hamster; settings: for % Micronucleated cells / Micronucleus Test Result: 4 hours, CHO-K1; for genetic toxicity: CHO-K1 micronucleus assay, in words
Experimental: Genetic toxicity analysis of compounds was performed in an in vitro micronucleus test, according to the protocol described in Diaz and colleagues (2007), at Eurofins Panlabs (St. Charles, MO, US). Micronucleated cells and micronuclei were enumerated by the use of high-content fluorescent cell imaging. The assay was performed on CHO-K1 cells. […] Experiments were performed in 2 biological replicates. All cell lines were tested as being negative for Mycoplasma contamination.

S. aureus = assay: pH-dependent MIC determination; assay type: cell-based; settings: Staphylococcus aureus
Experimental: as §1

[4] = test system: S. aureus VISA ATCC 700699 GyrB R144I and GyrB I175T; assay: Second-step frequency-of-resistance assay in GyrB single mutants; assay type: cell-based
Experimental: To determine the spontaneous frequency-of-resistance, approximately 10^10 cells from stationary-phase MHBII broth cultures of S. aureus ATCC 700699 and S. aureus ATCC 43300 were plated to antibiotic-containing plates according to a standard protocol to determine frequency-of-resistance. Prior to plating, bacteria were grown overnight in MHBII medium at 37 °C, 250 rpm, collected by centrifugation, and washed once in equal volumes of MHBII broth. From this concentrated cell suspension (250 μL), approximately 10^10 cells were then plated to each MHBII agarose plates. Using agarose instead of agar reduced drug-adsorption and improved the performance of the assay. […] All experiments were performed in at least 3 replicates. Plates were grown at 37 °C for 72 hours. Total CFUs were determined simultaneously in each experiment by plating appropriate dilutions to antibiotic-free MHBII agar plates. Finally, resistance frequencies for each strain were calculated by dividing the number of colonies formed after a 72-hour incubation at 37 °C by the initial viable cell count.

[5] = WT S. aureus VISA ATCC 700699, read-out: MIC
[6] = S. aureus ATCC 43300 (MRSA), pH 5.5
[7] = S. aureus ATCC 43300 (MRSA), pH 7.3
[8] = S. aureus ATCC 700699 (VISA), pH 5.5
[9] = S. aureus ATCC 700699 (VISA), pH 7.3

Compound | MIC [1, 5] | MIC ([1]; novobiocin-adapted Evolved 1) | MIC ([1]; novobiocin-adapted Evolved 2) | MIC ([1]; novobiocin-adapted Evolved 3) | MIC ([1]; novobiocin-adapted Evolved 4) | MIC ([1]; novobiocin-adapted Evolved 5) | MIC ([1]; novobiocin-adapted Evolved 6) | MIC ([1]; novobiocin-adapted Evolved 7) | MIC ([1]; novobiocin-adapted Evolved 8) | MIC ([1]; novobiocin-adapted Evolved 9) | MIC [2] | MIC (Klebsiella pneumoniae; ATCC10031) | MIC (Klebsiella pneumoniae) | LDH activity (human red blood cells) | hemolytic activity on human red blood cells (human red blood cells) | MIC [3] | increase in MIC in adapted strains compared with the wild-type strain [3] | % Micronucleated cells (CHO-K1 cells; 1.3 x 10^-4 M) | Micronucleus Test Result (CHO-K1 cells; 1.3 x 10^-4 M) | % Micronucleated cells (CHO-K1 cells; 2.5 x 10^-4 M) | other results
Cc1[nH]c(C(=O)Nc2nc3ccc(C(=O)O)cc3s2)c(Cl)c1Cl [ULD1] | 0.04 µg/mL | 0.016 µg/mL | 0.125 µg/mL | 0.016 µg/mL | 0.25 µg/mL | 0.063 µg/mL | 0.063 µg/mL | 0.125 µg/mL | 0.125 µg/mL | 0.016 µg/mL | < 2 µg/mL | 1 µg/mL | 1 µg/mL | 40 Unit/mL | no biocompatibility concerns | 1 µg/mL | 25 fold | 0.32% | - (A negative test (-) result indicates P > 0.05 by t-test and percentage of micronucleated cells less than 2-fold higher than the background level) | 0.56% | decrease in susceptibility compared with wild-type strain ([1]; 9 independently evolved novobiocin-resistant isolates): up to 6 fold; Micronucleus Test Result (CHO-K1 cells; 2.5 x 10^-4 M): - (A negative test (-) result indicates P > 0.05 by t-test and percentage of micronucleated cells less than 2-fold higher than the background level); % Micronucleated cells (CHO-K1 cells; 3.1 x 10^-5 M): 0.47%; Micronucleus Test Result (CHO-K1 cells; 3.1 x 10^-5 M): - (A negative test (-) result indicates P > 0.05 by t-test and percentage of micronucleated cells less than 2-fold higher than the background level); % Micronucleated cells (CHO-K1 cells; 5.0 x 10^-4 M): 0.57%; Micronucleus Test Result (CHO-K1 cells; 5.0 x 10^-4 M): - (A negative test (-) result indicates P > 0.05 by t-test and percentage of micronucleated cells less than 2-fold higher than the background level); % Micronucleated cells (CHO-K1 cells; 6.2 x 10^-5 M): 0.36%; Micronucleus Test Result (CHO-K1 cells; 6.2 x 10^-5 M): - (A negative test (-) result indicates P > 0.05 by t-test and percentage of micronucleated cells less than 2-fold higher than the background level); genetic toxicity (CHO-K1 cells): No genetic toxicity; MIC (S. aureus; [6]): 0.004 µg/mL; MIC (S. aureus; [7]): 0.1 µg/mL; MIC (S. aureus; [8]): 0.00025 µg/mL; MIC (S. aureus; [9]): 0.04 µg/mL; Resistant colony number ([4]; VISA GyrB I175T, 4xMIC): lawn; Resistant colony number ([4]; VISA GyrB I175T, 8xMIC): lawn; Resistant colony number ([4]; VISA GyrB R144I, 4xMIC): lawn; Frequency-of-Resistance ([4]; VISA GyrB R144I, 12xMIC): 4.57E-08; Resistant colony number ([4]; VISA GyrB R144I, 12xMIC): 1288; Frequency-of-Resistance ([4]; VISA GyrB R144I, 16xMIC): 1.61E-08; Resistant colony number ([4]; VISA GyrB R144I, 16xMIC): 454
Cc1[nH]c(C(=O)Nc2nc3c(OCc4ccccc4)cc(C(=O)O)cc3s2)c(Cl)c1Cl [ULD2] | 0.02 µg/mL | 0.016 µg/mL | 0.016 µg/mL | 0.016 µg/mL | 0.063 µg/mL | 0.031 µg/mL | 0.016 µg/mL | 0.016 µg/mL | 0.016 µg/mL | 0.016 µg/mL | < 2 µg/mL | 4 µg/mL | 4 µg/mL | 10 Unit/mL | no biocompatibility concerns | 0.5 µg/mL | 25 fold | 1.07% | - (A negative test (-) result indicates P > 0.05 by t-test and percentage of micronucleated cells less than 2-fold higher than the background level) | 1.36% | cross-resistance of novobiocin-resistant isolates ([1]; 9 independently evolved novobiocin-resistant isolates, in words): no cross-resistance; Micronucleus Test Result (CHO-K1 cells; 2.5 x 10^-4 M): - (A negative test (-) result indicates P > 0.05 by t-test and percentage of micronucleated cells less than 2-fold higher than the background level); % Micronucleated cells (CHO-K1 cells; 3.1 x 10^-5 M): 0.57%; Micronucleus Test Result (CHO-K1 cells; 3.1 x 10^-5 M): - (A negative test (-) result indicates P > 0.05 by t-test and percentage of micronucleated cells less than 2-fold higher than the background level); % Micronucleated cells (CHO-K1 cells; 5.0 x 10^-4 M): 0.78%; Micronucleus Test Result (CHO-K1 cells; 5.0 x 10^-4 M): - (A negative test (-) result indicates P > 0.05 by t-test and percentage of micronucleated cells less than 2-fold higher than the background level); % Micronucleated cells (CHO-K1 cells; 6.2 x 10^-5 M): 0.49%; Micronucleus Test Result (CHO-K1 cells; 6.2 x 10^-5 M): - (A negative test (-) result indicates P > 0.05 by t-test and percentage of micronucleated cells less than 2-fold higher than the background level); genetic toxicity (CHO-K1 cells): No genetic toxicity; MIC (S. aureus; [6]): 0.008 µg/mL; MIC (S. aureus; [7]): 0.06 µg/mL; MIC (S. aureus; [8]): 0.0005 µg/mL; MIC (S. aureus; [9]): 0.02 µg/mL; Resistant colony number ([4]; VISA GyrB I175T, 4xMIC): lawn; Resistant colony number ([4]; VISA GyrB R144I, 4xMIC): lawn; Resistant colony number ([4]; VISA GyrB R144I, 8xMIC): lawn; Frequency-of-Resistance ([4]; VISA GyrB R144I, 12xMIC): 4.65E-08; Resistant colony number ([4]; VISA GyrB R144I, 12xMIC): 1312; Frequency-of-Resistance ([4]; VISA GyrB R144I, 16xMIC): 3.55E-11; Resistant colony number ([4]; VISA GyrB R144I, 16xMIC): 1
